Reference: US20070122360A1, “Nonaqueous gel composition for tooth whitening and tooth whitening set” (LION CORPORATION, priority 2003, published 2007)

Experiments:
[1] = Solubility of ingredient (B) in tooth whitening ingredient (A), visual check for undissolved residues; settings: for Solubility in 1,3-butylene glycol: 0.1 g in 100 g 1,3-butylene glycol; for Solubility in PEG#300 (Av. MW 280-320): 0.1 g in 100 g PEG#300, 37° C.
Description: (§1) If the ingredient (B) is liquid, the term “is precipitated by an aqueous solution of calcium chloride” means that the ingredient (B) forms precipitates or becomes turbid.
A sample (0.1 g) of the ingredient (B) is added to 100 g of the tooth whitening ingredient (A), and the resulting mixture is stirred at 37° C. for 16 hours and allowed to stand at 37° C. for 24 hours. The mixture is visually examined for undissolved residues of the ingredient (B).
Criterion for Overall Rating: • ◯: More than 0.1 g is soluble in 100 g of ingredient (A) and less than 0.1 g is soluble in 100 g of aqueous solution of 1 mmol/L calcium chloride.
X: Other than specified above.

[2] = Solubility of ingredient (B) in aqueous solution of 1 mmol/L calcium chloride; settings: 0.1 g in 100 g aqueous 1 mmol/L calcium chloride, 37° C.
Description: as §1
Solubility of the ingredient (B) in an aqueous solution of 1 mmol/L calcium chloride was determined in the same way as above.

[3] = Measurement of relative permittivity (LCR meter, 100 kHz, 1 V); assay type: physicochemical
Description: The sample (100 mL) was tested for relative permittivity at 25° C. at a frequency of 100 kHz and a voltage of 1 V by using an LCR meter (HP4284A, with HP16452A electrode for liquid, from Hewlett Packard).

[4] = Measurement of vapor pressure (vapor-liquid equilibrium apparatus)
Description: The sample (80 mL in a cell) was tested for vapor pressure at (25° C.) by using a vapor-liquid equilibrium measuring apparatus (VLE autolabo, from TOYO KOATSU Co., Ltd.).

Row | Relative Permittivity (at 25° C.) [3] | Vapor pressure kPa (at 25° C.) [4] | SMILES | Solubility in Aqueous solution of 1 mmol/L calcium chloride [2] | further results
1 |  |  | CCCCCC/C=C\CCCCCCCC(=O)O [Palmitoleic acid] | X (solubility less than 0.1 g (with undissolved residues)) | Solubility in 1,3-butylene glycol ([1]; 37° C.): ◯ (solubility more than 0.1 g (no undissolved residues)); Solubility in PEG#300 (Av. MW 280-320) [1]: ◯ (solubility more than 0.1 g (no undissolved residues)); Solubility in Propylene glycol ([1]; 0.1 g in 100 g Propylene glycol, 37° C.): ◯ (solubility more than 0.1 g (no undissolved residues))
2 |  |  | [Cl-].[Cl-].[Zn+2] [Zinc chloride, reference compound] | ◯ (solubility more than 0.1 g (no undissolved residues)) | Solubility in 1,3-butylene glycol ([1]; 37° C.): ◯ (solubility more than 0.1 g (no undissolved residues))
3 | 26.2 | 0 kPa | CC(O)COC(C)CO (stereo not shown) [Dipropylene glycol] |  | 
4 |  |  | CCCCCCCC/C=C\CCCCCCCC(=O)O [Oleic acid] | X (solubility less than 0.1 g (with undissolved residues)) | Solubility in PEG#300 (Av. MW 280-320) [1]: ◯ (solubility more than 0.1 g (no undissolved residues))
5 |  |  | CCCCCCCCCCCCCC(=O)O [Myristic acid] | X (solubility less than 0.1 g (with undissolved residues)) | Solubility in PEG#300 (Av. MW 280-320) [1]: ◯ (solubility more than 0.1 g (no undissolved residues))
6 |  |  | CCCCCCCC/C=C\CCCCCCCCCCCC(=O)O [Erucic acid] | X (solubility less than 0.1 g (with undissolved residues)) | Solubility in PEG#300 (Av. MW 280-320) [1]: ◯ (solubility more than 0.1 g (no undissolved residues))
7 | 32.0 | 1 kPa | CC(O)CO (stereo not shown) [Propylene glycol] |  | 
8 | 42.5 | 3 kPa | OCC(O)CO [Glycerin] |  | 
9 | 19.9 | 5819 kPa | CC(C)O [Isopropanol] |  | 
10 | 24.6 | 7948 kPa | CCO [Ethanol] |  | 
11 |  |  | CCCCCCCCCCCC(=O)O [Lauric acid, reference compound] | ◯ (solubility more than 0.1 g (no undissolved residues)) | Solubility in 1,3-butylene glycol ([1]; 37° C.): ◯ (solubility more than 0.1 g (no undissolved residues))

Row | SMILES | Relative Permittivity (at 25° C.) [3] | Vapor pressure kPa (at 25° C.) [4] | Solubility in Aqueous solution of 1 mmol/L calcium chloride [2] | further results
12 | CC(O)CCO (stereo not shown) [1,3-dibutylene glycol] | 33.5 | 108 kPa |  | 
13 | OCCO [Ethylene glycol] | 37.7 | 59 kPa |  | 
14 | OCCOCCO [Diethylene glycol] | 33.0 | 11 kPa |  | 
15 | O [Water] | 78.3 |  |  | 
